Measurements from PubChem BioAssay (NCI).
Several values for one entry are separate records, joined by “and”; a condition that tells them apart may be missing. Identical values can stand only once.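 48-hour exposure; five concentrations; linearly interpolated endpoints. GI50 is the concentration that inhibits growth by half. At the TGI there is no net growth.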 Where a SMILES comes first, the peptide text is derived from it. [ ]: non-standard residue; d: D form. 2Nal = N[CH](Cc1ccc2ccccc2c1)C(=O)O

What was measured:
Experiment in all cases: DTP human tumour cell line panel, 48 h
DU-145 prostate = test system: DU-145 prostate
HCT-15 colon = test system: HCT-15 colon
HOP-18 NSCLC = test system: HOP-18 NSCLC
LXFL 529 NSCLC = test system: LXFL 529 NSCLC
NCI-H460 lung = test system: NCI-H460 lung
SF-539 CNS = test system: SF-539 CNS
SK-MEL-2 melanoma = test system: SK-MEL-2 melanoma
SN12C renal = test system: SN12C renal
SR leukemia = test system: SR leukemia
SNB-75 CNS = test system: SNB-75 CNS

Compound | GI50 (DU-145 prostate) | GI50 (HCT-15 colon) | TGI (HCT-15 colon) | GI50 (HOP-18 NSCLC) | TGI (HOP-18 NSCLC) | TGI (LXFL 529 NSCLC) | GI50 (NCI-H460 lung) | GI50 (SF-539 CNS) | TGI (SF-539 CNS) | GI50 (SK-MEL-2 melanoma) | TGI (SK-MEL-2 melanoma) | GI50 (SN12C renal) | TGI (SN12C renal) | GI50 (SR leukemia) | TGI (SR leukemia) | TGI (DU-145 prostate) | TGI (NCI-H460 lung) | TGI (SNB-75 CNS)
NC(=Nc1nc(-c2ccccn2)cc2ccccc12)c1ccccn1 | 0.135 µM | 0.000503 µM | > 19.7 µM | 0.258 µM | 27.1 µM | > 100 µM | 0.099 µM | 0.189 µM | 0.743 µM and 2.08 µM | 0.477 µM and 0.272 µM | > 89.3 µM | 0.131 µM | 22.7 µM | 0.0619 µM and < 0.0145 µM | 0.243 µM and 0.722 µM | – | – | –
CC(C)C(NC(=O)C(CCCCN)NC(=O)C(Cc1c[nH]c2ccccc12)NC(=O)C(Cc1ccc(O)cc1)NC(=O)C(CS)NC(=O)C(N)Cc1ccc2ccccc2c1)C(=O)NC(CS)C(=O)NC(C(N)=O)C(C)O (stereo unspecified) (H-[2Nal]CYWKVCT-NH2; configuration not given here) | – | > 100 µM | > 100 µM | – | > 100 µM | > 100 µM | > 100 µM | > 100 µM | > 100 µM | > 100 µM | > 100 µM | > 100 µM | > 100 µM | > 100 µM | > 100 µM | > 12.5 µM | > 100 µM | > 100 µM
O=C1C(=O)N(c2cccc(C(F)(F)F)c2)C(=O)C(=O)C1c1nc2ccccc2s1 | – | – | > 100 µM | – | > 100 µM | > 100 µM | – | – | > 100 µM | – | > 100 µM | – | > 100 µM | – | 83.6 µM | > 100 µM | > 100 µM | > 100 µM
